SMILES strings stand for the structures.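 Protocol summary: plate cells (96-well), add compound at 5 concentrations, incubate 48 h, interpolate endpoints linearly. GI50 is the concentration that inhibits growth by half.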 The source made the active and inactive calls. No stated cut-off is given here; in the data, active = GI50 up to about 1.1 µM and inactive = higher. Where only a bound is given, the exact number is not on record here.

Common to all, as to test: inhibition of tumour cell growth, NCI panel, 48 h
Assay [1] has as its system Malme-3M.
For assay [2], the system named is HT-29.
Assay [3] concerns SN12C.
Assay [4] relates to OVCAR-3.
The test system of assay [5] is CCRF-CEM.
Assay [6] concerns M19-MEL.
Assay [7] concerns UACC-257.
The test system of assay [8] is HCT-116.
The subject of assay [9] is SF-539.
Assay [10] relates to A549.
Assay [11] deals with CAKI-1.
Assay [12] has as its system K562.
Assay [13] has as its system NCI-H460.
The test system of assay [14] is HL-60.
Assay [15] deals with SW-620.
Assay [16] relates to SK-MEL-2.
Assay [17] relates to OVCAR-4.
Assay [18] has as its system HOP-62.
Assay [19] concerns HCC 2998.

As to `C[C@]12CCC(=O)C(O)=C1CC[C@@H]1C2CC[C@]2(C)NC(=O)CCC12` (some centres undefined), the GI50 in assay [1], in assay [2], in [3], in assay [4], in [5] and in [6] was > 100 µM (inactive) each time. For the same molecule, the GI50 in assay [7], in assay [8], in assay [9], in [10], in [11] and in [12] was > 100 µM (inactive) in each case. Moreover, the GI50 in assay [13], in assay [14], in [15], in [16], in [17] and in assay [18] was > 100 µM (inactive) in each case.

Regarding `CCC1=CCC(P(=O)(c2ccccc2)c2ccccc2)CC1C` (centres undefined), the GI50 in assay [1] was 41.7 µM (inactive); in assay [2], > 100 µM (inactive); in assay [3], 44.7 µM (inactive); in [4], 35.4 µM (inactive); in assay [5], 31.3 µM (inactive); in assay [6] it was 39.5 µM (inactive). The GI50 in [7] is 74.5 µM (inactive); in [8], 22.9 µM (inactive); in assay [9], 42.9 µM (inactive); in assay [10] it was 37.1 µM (inactive); in assay [11], > 100 µM (inactive); in assay [12], 35.2 µM (inactive). Further, the GI50 in assay [13] is 39.1 µM (inactive); in assay [14] it was 22.2 µM (inactive); in [15], 48.5 µM (inactive); in assay [16] it was 29.7 µM (inactive); in assay [17] it was 35.6 µM (inactive).

Regarding `CCNC(=O)O/N=C1\CCC2[C@@H]3CC=C4C[C@@H](OC(=O)NCC)CC[C@]4(C)C3CC[C@]12C` (some centres undefined), the GI50 is 0.267 µM (active) in assay [1]; 4.68 µM (inactive) in assay [19]; 2.86 µM (inactive) in assay [2]; 2.65 µM (inactive) in [3]; 2.21 µM (inactive) in assay [4]; 1.65 µM (inactive) in assay [6]. Also, the GI50 was 0.422 µM (active) in assay [7]; 0.57 µM (active) in assay [8]; 8.95 µM (inactive) in assay [9]; 2.16 µM (inactive) in assay [10]; 1.88 µM (inactive) in [11]; 0.769 µM (active) in assay [12]. In addition, the GI50 is 1.83 µM (inactive) in [13]; 3.61 µM (inactive) in assay [15]; 2.13 µM (inactive) in assay [16]; 1.55 µM (inactive) in assay [17]; 22.3 µM (inactive) in assay [18].

`O=C(CC1(O)C(=O)Nc2ccccc21)c1cccc(O)c1` (centres undefined): the GI50 in assay [1], in assay [2], in assay [3], in [4], in assay [6] and in assay [7] was > 100 µM (inactive) each time. For the same molecule, the GI50 in assay [8], in [9], in [10], in assay [11], in assay [12] and in assay [13] was > 100 µM (inactive) throughout. Further, the GI50 in assay [14], in [15], in [16], in assay [17] and in assay [18] was > 100 µM (inactive) each time.
